This test has as its target human muscarinic M3 receptor (Homo sapiens (Human), UniProt P20309). As to the kind of experiment: Binding assay on human muscarinic M3 receptor ([3H]-methyl scopolamine displacement). The settings on record: membranes overexpressing human M3 receptor, Ki from IC50 by Cheng-Prusoff, read-out: Binding Affinity to M3 Receptor, Ki. How it is done:
[Experimental Example 1] Binding Assay on Human Muscarinic M3 Receptor
Cell membrane proteins (Perkin Elmer) wherein human muscarinic M3 receptor was overexpressed, [^3H]-methyl scopolamine and test compounds in various concentration were cultured in 0.2 ml of Tris-HCl buffer at 25° C. for 120 minutes. The same was filtered under suction through glass fiber filter (Whatman GF/B), and then the filter was washed 5 times with 1 ml of Tris-HCl buffer. The radioactivity of [^3H]-methyl scopolamine adsorbed on the filter was measured by a liquid scintillation counter. Non-specific binding was evaluated under existence of 5 μM of atropine. Affinity of the compound of the present invention to muscarinic M3 receptor was calculated as the dissociation constant (Ki), which can be calculated from concentration (IC50) of test compounds inhibiting 50% of binding of [^3H]-methyl scopolamine (i.e. labeled ligand) according to Cheng and Prusoff [Cheng and Prusoff, Biochem. Pharmacol., 22, 3099, 1973].

Here are results for 39 molecules from patent US9828339B2, “Biphenyl derivatives and methods for preparing same” (DONG-A ST CO., LTD, priority 2013, dated 2017).

pKi: −log10 of the molar value.

Sequence of human muscarinic M3 receptor (P20309 whole entry): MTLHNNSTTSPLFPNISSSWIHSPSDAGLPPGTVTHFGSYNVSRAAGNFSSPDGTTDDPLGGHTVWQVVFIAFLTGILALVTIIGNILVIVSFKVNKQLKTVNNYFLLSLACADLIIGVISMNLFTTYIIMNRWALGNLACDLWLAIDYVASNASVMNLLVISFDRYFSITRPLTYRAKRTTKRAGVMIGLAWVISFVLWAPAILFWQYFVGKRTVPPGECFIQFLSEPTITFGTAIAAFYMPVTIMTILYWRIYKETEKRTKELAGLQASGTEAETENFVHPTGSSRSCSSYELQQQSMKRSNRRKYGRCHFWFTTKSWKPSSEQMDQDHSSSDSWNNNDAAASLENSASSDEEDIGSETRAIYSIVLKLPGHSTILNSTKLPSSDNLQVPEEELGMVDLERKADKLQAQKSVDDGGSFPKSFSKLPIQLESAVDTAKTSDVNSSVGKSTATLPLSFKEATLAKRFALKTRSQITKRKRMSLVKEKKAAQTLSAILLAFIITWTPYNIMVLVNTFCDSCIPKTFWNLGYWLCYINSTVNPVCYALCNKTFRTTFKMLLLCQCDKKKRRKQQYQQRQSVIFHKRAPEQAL

For the molecule `O=C(Nc1ccccc1-c1ccc(F)cc1)OCC1CCCN1` (stereo in doubt) [Example 88, (S)-pyrrolidin-2-ylmethyl (4′-fluoro-[1,1′-biphenyl]-2-yl)carbamate], the pKi (in general, the negative decadic logarithm of the Ki, by convention in mol/L) is 7.00.

Regarding `COc1ccc(-c2ccccc2NC(=O)OCCC2CCCN2C)cc1` (stereo not drawn) [Example 5, 2-(1-methylpyrrolidin-2-yl)ethyl(4′-methoxy-[1,1′-biphenyl]-2-yl)carbamate], the pKi is 5.96.

As for `CN1CCCC1CCOC(=O)Nc1ccccc1-c1ccc(Cl)cc1` (stereo not drawn) [Example 7, 2-(1-methylpyrrolidin-2-yl)ethyl(4′-chloro-[1,1′-biphenyl]-2-yl)carbamate], the pKi was 7.50.

Consider `CN1CCCC1CCOC(=O)Nc1ccccc1-c1ccc(OC(F)(F)F)cc1` (stereo not drawn) [Example 10, 2-(1-methylpyrrolidin-2-yl)ethyl(4′-trifluoromethoxy-[1,1′-biphenyl]-2-yl)carbamate], for which the pKi is 6.40.

On to `CN1CCCC1CCOC(=O)Nc1ccccc1-c1ccc([N+](=O)[O-])cc1` (stereo not drawn) [Example 11, 2-(1-methylpyrrolidin-2-yl)ethyl(4′-nitro-[1,1′-biphenyl]-2-yl)carbamate], for which the pKi was 6.33.

As for `CN1CCCC1CCOC(=O)Nc1ccccc1-c1cccc(C(F)(F)F)c1` (stereo not drawn) [Example 12, 2-(1-methylpyrrolidin-2-yl)ethyl(3′-trifluoromethyl-[1,1′-biphenyl]-2-yl)carbamate], the pKi was 7.06.

As for `CN1CCCC1CCOC(=O)Nc1ccccc1-c1ccc(C(F)(F)F)cc1` (stereo not drawn) [Example 13, 2-(1-methylpyrrolidin-2-yl)ethyl(4′-trifluoromethyl-[1,1′-biphenyl]-2-yl)carbamate], the pKi was 7.10.

On to `Cc1ccc(-c2ccccc2NC(=O)OCCC2CCCN2C)cc1F` (stereo not drawn) [Example 14, 2-(1-methylpyrrolidin-2-yl)ethyl((3′-fluoro-4′-methyl)-[1,1′-biphenyl]-2-yl)carbamate], for which the pKi was 7.91.

Consider `CCOc1cccc(-c2ccccc2NC(=O)OCCC2CCCN2C)c1` (stereo not drawn) [Example 16, 2-(1-methylpyrrolidin-2-yl)ethyl(3′-ethoxy-[1,1′-biphenyl]-2-yl)carbamate], for which the pKi is 5.98.

For the molecule `CN1CCCC1CCOC(=O)Nc1ccc(F)cc1-c1cccc(F)c1` (stereo not drawn) [Example 18, 2-(1-methylpyrrolidin-2-yl)ethyl(3′,5-difluoro-[1,1′-biphenyl]-2-yl)carbamate], the pKi was 8.16.

Regarding `CN1CCCC1CCOC(=O)Nc1ccc(F)cc1-c1cc(F)cc(F)c1` (stereo not drawn) [Example 20, 2-(1-methylpyrrolidin-2-yl)ethyl(3′,5,5′-trifluoro-[1,1′-biphenyl]-2-yl)carbamate], the pKi is 7.68.

For the molecule `CN1CCCC1CCOC(=O)Nc1cc(F)ccc1-c1ccccc1` (stereo not drawn) [Example 23, 2-(1-methylpyrrolidin-2-yl)ethyl(4-fluoro-[1,1′-biphenyl]-2-yl)carbamate], the pKi was 8.19.

Regarding `CN1CCCC1CCOC(=O)Nc1cc(F)ccc1-c1cccc(F)c1` (stereo not drawn) [Example 24, 2-(1-methylpyrrolidin-2-yl)ethyl(3′,4-difluoro-[1,1′-biphenyl]-2-yl)carbamate], the pKi was 7.51.

For `COc1ccc(-c2ccccc2)c(NC(=O)OCCC2CCCN2C)c1` (stereo not drawn) [Example 25, 2-(1-methylpyrrolidin-2-yl)ethyl(4-methoxy-[1,1′-biphenyl]-2-yl)carbamate], the negative logarithm of the Ki (pKi) was 6.94.

As for `Cc1ccc(NC(=O)OCCC2CCCN2C)c(-c2cccc(F)c2)c1` (stereo not drawn) [Example 27, 2-(1-methylpyrrolidin-2-yl)ethyl(3′-fluoro-5-methyl-[1,1′-biphenyl]-2-yl)carbamate], the pKi is 7.25.

In the case of `CN1CCCC1CCOC(=O)Nc1ccccc1-c1ccc(C#N)cc1` (stereo not drawn) [Example 28, 2-(1-methylpyrrolidin-2-yl)ethyl(4′-cyano-[1,1′-biphenyl]-2-yl)carbamate], the pKi is 6.07.

For the molecule `CN1CCCC1CCOC(=O)Nc1ccccc1-c1cccc(CCCO)c1` (stereo not drawn) [Example 29, 2-(1-methylpyrrolidin-2-yl)ethyl(3′-(3-hydroxypropyl)-[1,1′-biphenyl]-2-yl)carbamate], the pKi was 6.03.

Turning to `CN(C)c1ccc(-c2ccccc2NC(=O)OCCC2CCCN2C)cc1` (stereo not drawn) [Example 30, 2-(1-methylpyrrolidin-2-yl)ethyl(4′-(dimethylamino)-[1,1′-biphenyl]-2-yl)carbamate], the pKi is 6.08.

On to `CN1CCCC1CCOC(=O)Nc1ccccc1-c1ccc(C(C)(C)C)cc1` (stereo not drawn) [Example 31, 2-(1-methylpyrrolidin-2-yl)ethyl(4′-(tert-butyl)-[1,1′-biphenyl]-2-yl)carbamate], for which the pKi is 6.51.

`CN1CCCC1CCOC(=O)Nc1ccccc1-c1ccccc1N` (stereo not drawn) [Example 32, 2-(1-methylpyrrolidin-2-yl)ethyl(2′-amino-[1,1′-biphenyl]-2-yl)carbamate]: the pKi was less than 6.00.

As for `CN1CCCC1CCOC(=O)Nc1ccccc1-c1cccc(N)c1` (stereo not drawn) [Example 33, 2-(1-methylpyrrolidin-2-yl)ethyl(3′-amino-[1,1′-biphenyl]-2-yl)carbamate], the pKi was 7.77.

With `CN1CCCC1CCOC(=O)Nc1ccccc1-c1ccccc1Cl` (stereo not drawn) [Example 35, 2-(1-methylpyrrolidin-2-yl)ethyl(2′-chloro-[1,1′-biphenyl]-2-yl)carbamate], the pKi is 6.36.

In the case of `CN1CCCC1CCOC(=O)Nc1ccccc1-c1ccccc1O` (stereo not drawn) [Example 36, 2-(1-methylpyrrolidin-2-yl)ethyl(2′-hydroxy-[1,1′-biphenyl]-2-yl)carbamate], the pKi was less than 6.00.

For `Cc1cc(-c2ccccc2NC(=O)OCCC2CCCN2C)cc(C(C)(C)C)c1` (stereo not drawn) [Example 37, 2-(1-methylpyrrolidin-2-yl)ethyl(3′-tert-butyl-5′-methyl-[1,1′-biphenyl]-2-yl)carbamate], the pKi is less than 6.00.

With `CN1CCCC1CCOC(=O)Nc1ccccc1-c1ccc(F)c(C(F)(F)F)c1` (stereo not drawn) [Example 38, 2-(1-methylpyrrolidin-2-yl)ethyl(4′-fluoro-3′-(trifluoromethyl)-[1,1′-biphenyl]-2-yl)carbamate], the pKi is 6.24.

With `CN1CCCC1CCOC(=O)Nc1ccccc1-c1ccc(N)c(Cl)c1` (stereo not drawn) [Example 39, 2-(1-methylpyrrolidin-2-yl)ethyl(4′-amino-3′-chloro-[1,1′-biphenyl]-2-yl)carbamate], the pKi is 7.55.

For the molecule `CN1CCCC1CCOC(=O)Nc1ccccc1-c1cccc(O)c1` (stereo not drawn) [Example 40, 2-(1-methylpyrrolidin-2-yl)ethyl(3′-hydroxy-[1,1′-biphenyl]-2-yl)carbamate], the pKi was 6.92.

With `CCc1cccc(-c2cc(F)ccc2NC(=O)OCCC2CCCN2C)c1` (stereo not drawn) [Example 44, 2-(1-methylpyrrolidin-2-yl)ethyl(3′-ethyl-5-fluoro-[1,1′-biphenyl]-2-yl)carbamate], the pKi was 7.02.

On to `Cc1cc(C)cc(-c2cc(F)ccc2NC(=O)OCCC2CCCN2C)c1` (stereo not drawn) [Example 45, 2-(1-methylpyrrolidin-2-yl)ethyl(5-fluoro-3′,5′-dimethyl-[1,1′-biphenyl]-2-yl)carbamate], for which the pKi was 7.16.

On to `CN1CCCC1CCOC(=O)Nc1ccc(F)cc1-c1cccc(N)c1` (stereo not drawn) [Example 46, 2-(1-methylpyrrolidin-2-yl)ethyl(3′-amino-5-fluoro-[1,1′-biphenyl]-2-yl)carbamate], for which the negative-log Ki (pKi) was 7.43.

As to `CN1CCCC1CCOC(=O)Nc1ccc(C(F)(F)F)cc1-c1ccccc1` (stereo not drawn) [Example 47, 2-(1-Methylpyrrolidin-2-yl)ethyl(5-(trifluoromethyl)-[1,1′-biphenyl]-2-yl)carbamate], the pKi was 6.86.

On to `CN1CCCC1CCOC(=O)Nc1ccc(C(F)(F)F)cc1-c1ccc(F)cc1` (stereo not drawn) [Example 48, 2-(1-Methylpyrrolidin-2-yl)ethyl(4′-fluoro-5-(trifluoromethyl)-[1,1′-biphenyl]-2-yl)carbamate], for which the pKi is 6.59.

In the case of `CN1CCCC1CCOC(=O)Nc1ccc(C(F)(F)F)cc1-c1cccc(F)c1` (stereo not drawn) [Example 49, 2-(1-Methylpyrrolidin-2-yl)ethyl(3′-fluoro-5-(trifluoromethyl)-[1,1′-biphenyl]-2-yl)carbamate], the pKi was 6.52.

With `CN1CCCC1CCOC(=O)Nc1ccc(C(F)(F)F)cc1-c1cc(F)cc(F)c1` (stereo not drawn) [Example 50, 2-(1-Methylpyrrolidin-2-yl)ethyl (3′,5′-difluoro-5-(trifluoromethyl)-[1,1′-biphenyl]-2-yl)carbamate], the pKi was less than 6.00.

Consider `CN1CCCC1CCOC(=O)Nc1ccc(C(F)(F)F)cc1-c1cccc(Cl)c1` (stereo not drawn) [Example 51, 2-(1-Methylpyrrolidin-2-yl)ethyl(3′-chloro-5-(trifluoromethyl)-[1,1′-biphenyl]-2-yl)carbamate], for which the pKi is 6.99.

As to `CN1CCCC1CCOC(=O)Nc1ccc(F)cc1-c1ccc(Cl)c(F)c1` (stereo not drawn) [Example 54, 2-(1-methylpyrrolidin-2-yl)ethyl(4′-chloro-3′,5-difluoro-[1,1′-biphenyl]-2-yl)carbamate], the pKi is 6.90.

With `CN1CCCC1CCOC(=O)Nc1ccc(F)cc1-c1cc(Cl)cc(Cl)c1` (stereo not drawn) [Example 55, 2-(1-methylpyrrolidin-2-yl)ethyl(3′,5′-dichloro-5-fluoro-[1,1′-biphenyl]-2-yl)carbamate], the pKi is 7.41.

Regarding `CN1CCCC1CCOC(=O)Nc1ccc(F)cc1-c1cc(O)cc(Cl)c1` (stereo not drawn) [Example 57, 2-(1-methylpyrrolidin-2-yl)ethyl(3′-chloro-5-fluoro-5′-hydroxy-[1,1′-biphenyl]-2-yl)carbamate], the negative logarithm of the Ki (pKi) was 7.46.

As for `COc1ccc(NC(=O)OCCC2CCCN2C)c(-c2ccccc2)c1` (stereo not drawn) [Example 60, 2-(1-methylpyrrolidin-2-yl)ethyl(5-methoxy-[1,1′-biphenyl]-2-yl)carbamate], the pKi was 6.93.
